Publication PMC6461236, “The three dimensional structure of Bovine Salivary Protein 30b (BSP30b) and its interaction with specific rumen bacteria” (PLoS ONE, 2019)

Molecular target: T1, BSP30b (Bovine Salivary Protein 30b) (Bos taurus, UniProt P79125)
T1 construct: gene SPLUNC2B; E. coli BL21, pProEx Htb (BamHI/XhoI), HiTrap Ni, MONO Q and SEC purified; synthetic F61M/F115M double mutant; model covers about residues 40-235
T1 sequence (P79125 20-240): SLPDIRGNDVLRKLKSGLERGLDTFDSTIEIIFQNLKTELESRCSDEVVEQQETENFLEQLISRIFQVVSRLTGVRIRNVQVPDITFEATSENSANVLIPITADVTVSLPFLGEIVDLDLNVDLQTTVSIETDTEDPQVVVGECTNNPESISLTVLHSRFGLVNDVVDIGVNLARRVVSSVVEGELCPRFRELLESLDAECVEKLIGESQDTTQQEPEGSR
Assay: X-ray co-crystal structure, […] Å
Assay type: binding
Conditions: co-crystallised at pH 7.5 after SEC removal of unbound ligand; in hydrophobic channel, about 80% occupancy in dominant site, weaker in second molecule of ASU; contacts ASP112 and ILE113

CCCCCCCC/C=C\CCCCCCCC(=O)O [oleic acid]
X-ray co-crystal structure, 2.30 Å: The only structure that revealed elongated stretches of electron density within the hydrophobic tunnel
